Here are results for two molecules from BindingDB's records for doi:10.1021/jm900735p (Pharmacy School of Wenzhou Medical College, 2009).

This test deals with Xanthine dehydrogenase/oxidase (Rattus norvegicus, UniProt P22985). The test is described as follows: Inhibition of rat liver xanthine oxidase after 2 hrs by spectrophotometry.
Chain of Xanthine dehydrogenase/oxidase (P22985 whole entry): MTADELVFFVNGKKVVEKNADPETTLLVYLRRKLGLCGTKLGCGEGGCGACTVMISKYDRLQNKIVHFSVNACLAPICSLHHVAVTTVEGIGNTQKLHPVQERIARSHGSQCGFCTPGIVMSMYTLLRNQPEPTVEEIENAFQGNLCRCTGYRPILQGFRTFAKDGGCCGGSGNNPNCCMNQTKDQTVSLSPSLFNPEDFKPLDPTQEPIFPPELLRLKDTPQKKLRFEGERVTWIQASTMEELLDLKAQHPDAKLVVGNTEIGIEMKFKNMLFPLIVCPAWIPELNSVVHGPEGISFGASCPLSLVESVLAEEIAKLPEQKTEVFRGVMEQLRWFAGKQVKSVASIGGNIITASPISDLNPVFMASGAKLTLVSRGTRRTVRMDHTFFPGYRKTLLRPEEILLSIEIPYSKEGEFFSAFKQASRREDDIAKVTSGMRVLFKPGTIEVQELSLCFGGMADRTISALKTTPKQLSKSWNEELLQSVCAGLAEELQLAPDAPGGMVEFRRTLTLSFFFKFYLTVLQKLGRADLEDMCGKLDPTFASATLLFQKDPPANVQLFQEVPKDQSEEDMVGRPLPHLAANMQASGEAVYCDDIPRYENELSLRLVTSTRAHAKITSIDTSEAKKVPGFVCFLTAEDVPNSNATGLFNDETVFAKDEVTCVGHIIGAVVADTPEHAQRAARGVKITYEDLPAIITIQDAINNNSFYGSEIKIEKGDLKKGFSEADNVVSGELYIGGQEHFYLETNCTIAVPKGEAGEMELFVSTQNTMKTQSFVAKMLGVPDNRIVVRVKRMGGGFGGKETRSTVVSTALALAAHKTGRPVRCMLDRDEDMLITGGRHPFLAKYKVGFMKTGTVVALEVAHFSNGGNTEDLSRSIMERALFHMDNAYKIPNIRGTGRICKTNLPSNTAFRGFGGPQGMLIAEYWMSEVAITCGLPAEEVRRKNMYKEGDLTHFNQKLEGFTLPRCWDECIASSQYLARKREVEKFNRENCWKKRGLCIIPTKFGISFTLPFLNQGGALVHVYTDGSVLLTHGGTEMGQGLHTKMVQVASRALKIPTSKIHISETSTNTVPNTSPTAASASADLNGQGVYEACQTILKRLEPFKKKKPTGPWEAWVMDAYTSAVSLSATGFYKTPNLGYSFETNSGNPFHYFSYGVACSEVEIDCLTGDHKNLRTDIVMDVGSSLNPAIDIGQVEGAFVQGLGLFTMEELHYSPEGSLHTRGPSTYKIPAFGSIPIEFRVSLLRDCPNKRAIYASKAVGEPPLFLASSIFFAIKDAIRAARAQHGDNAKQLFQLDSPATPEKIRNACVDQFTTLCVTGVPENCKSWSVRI

In the case of `COc1cc([C@@H]2Oc3cc(C4Oc5cc(O)cc(O)c5C(O)C4=O)ccc3O[C@H]2CO)ccc1O` (some centres not stated) [SMR000857154], 80.3 µM corresponded to half-maximal inhibition (IC50).
With `COc1cc(C2Oc3cc(-c4oc5cc(O)cc(=O)c-5c(O)c4O)ccc3OC2CO)ccc1O` (configuration not stated) [Dehydrosilylbin] the figure was 80.3 µM.
